From patent US20260166128A1, “HUMAN AMYLIN ANALOG, AND DERIVATIVE THEREOF AND USE THEREOF” (priority 2022, published 2026)
Numbered stars: 1 amine (or outer) side, 2 acyl side, 3 side chain; on linkers, the order of the positions; unused ones are H or OH. Bridge positions count the residues as written; N and C are the ends. Square brackets hold non-standard residues; d marks the D form. Side chains are listed from the residue outwards. Peptide text beside a SMILES is read from it. * marks the point of attachment. C20 diacid = O=C(O)CCCCCCCCCCCCCCCCCCC(=O)*; C18 diacid = O=C(O)CCCCCCCCCCCCCCCCC(=O)*; γGlu = O=C(O)[C@H](CCC(=O)[*:2])N[*:1]; Hyp = O=C(O)[C@@H]1C[C@@H](O)CN1; AEEA = NCCOCCOCC(=O)O

target: T1, human amylin receptor (Homo sapiens, UniProt O60896+P30988); test: Luciferase assay of amylin derivatives in amylin receptor/CRE-luc CHO cell line; type: cell-based; settings: CHO-K1/Ga15/AMY3 CRE-luc cells, 24 hours incubation, F12 medium containing 10% FBS; read-out: EC50
T1 construct: host or cells: CHO-K1/Ga15/AMY3 cells, further stably transfected with a CRE-luciferase plasmid
T1 sequence (P30988 25-474): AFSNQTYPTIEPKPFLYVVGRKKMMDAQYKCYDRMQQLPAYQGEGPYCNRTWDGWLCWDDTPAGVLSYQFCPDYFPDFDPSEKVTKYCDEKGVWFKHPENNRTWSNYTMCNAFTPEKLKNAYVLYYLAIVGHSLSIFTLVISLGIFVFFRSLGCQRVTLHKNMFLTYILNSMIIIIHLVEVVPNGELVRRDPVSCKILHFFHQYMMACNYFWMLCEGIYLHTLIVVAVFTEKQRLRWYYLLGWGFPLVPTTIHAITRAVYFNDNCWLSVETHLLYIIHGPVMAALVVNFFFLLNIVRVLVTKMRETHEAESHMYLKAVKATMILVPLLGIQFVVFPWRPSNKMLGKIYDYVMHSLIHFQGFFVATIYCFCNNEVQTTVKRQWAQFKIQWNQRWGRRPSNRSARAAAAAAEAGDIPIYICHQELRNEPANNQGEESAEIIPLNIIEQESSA
T1 sequence (O60896 24-148 partner): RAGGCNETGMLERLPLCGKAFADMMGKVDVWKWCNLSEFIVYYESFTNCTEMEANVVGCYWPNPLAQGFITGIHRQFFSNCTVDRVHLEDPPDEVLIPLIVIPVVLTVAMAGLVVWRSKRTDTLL
Method: The experiment was intended to detect the activity or efficacy of the amylin derivatives on a human amylin receptor in vitro by luciferase assay.
50 μL of growth medium (F12 medium containing 10% FBS) was added into each well of a white 96-well plate, and the stably transfected amylin/CRE-lue CHO cells were inoculated into the white 96-well plate at a density of about 20,000 cells/well for activity determination.

Question: How did the EC50 turn out when `CC[C@H](C)[C@H](NC(=O)[C@@H]1CCCN1C(=O)CNC(=O)[C@H](CC(C)C)NC(=O)[C@H](CC(N)=O)NC(=O)[C@H](CCCCNC(=O)COCCOCCNC(=O)CC[C@H](NC(=O)CCCCCCCCCCCCCCCCC(=O)O)C(=O)O)NC(=O)[C@H](CO)NC(=O)[C@H](CO)NC(=O)[C@H](Cc1c[nH]cn1)NC(=O)[C@H](CCCNC(=N)N)NC(=O)[C@H](CC(C)C)NC(=O)[C@H](Cc1ccccc1)NC(=O)[C@H](CC(=O)O)NC(=O)[C@H](C)NC(=O)[C@H](CC(C)C)NC(=O)[C@H](CCCNC(=N)N)NC(=O)[C@H](CCC(N)=O)NC(=O)[C@@H](NC(=O)[C@H](C)NC(=O)[C@@H]1CSSC[C@H](NC(=O)[C@@H](N)CCCNC(=N)N)C(=O)N[C@@H](CC(N)=O)C(=O)N[C@@H]([C@@H](C)O)C(=O)N[C@@H](C)C(=O)N[C@@H]([C@@H](C)O)C(=O)N1)[C@@H](C)O)C(=O)N[C@@H](CC(C)C)C(=O)N1CCC[C@H]1C(=O)N1CCC[C@H]1C(=O)N[C@H](C(=O)N[C@@H](CC(N)=O)C(=O)N[C@H](C(=O)NCC(=O)N[C@@H](CO)C(=O)N[C@@H](CC(N)=O)C(=O)N[C@H](C(=O)N1C[C@H](O)C[C@H]1C(N)=O)[C@@H](C)O)C(C)C)[C@@H](C)O` [PD115] (H-RCNTATCATQRLADFLRHSSK([AEEA-γGlu-C18 diacid])NLGPILPPTNVGSNT[Hyp]-NH2; disulfide 2-7) was run?
Answer: 0.011 nM

Question: `CC[C@H](C)[C@H](NC(=O)[C@@H]1CCCN1C(=O)CNC(=O)[C@H](CC(C)C)NC(=O)[C@H](CC(N)=O)NC(=O)[C@H](CC(N)=O)NC(=O)[C@H](CCCCNC(=O)COCCOCCNC(=O)CC[C@H](NC(=O)CCCCCCCCCCCCCCCCCCC(=O)O)C(=O)O)NC(=O)[C@H](CO)NC(=O)[C@H](Cc1c[nH]cn1)NC(=O)[C@H](CCCNC(=N)N)NC(=O)[C@H](CC(C)C)NC(=O)[C@H](Cc1ccccc1)NC(=O)[C@H](CC(=O)O)NC(=O)[C@H](C)NC(=O)[C@H](CC(C)C)NC(=O)[C@H](CCCNC(=N)N)NC(=O)[C@H](CCC(N)=O)NC(=O)[C@@H](NC(=O)[C@H](C)NC(=O)[C@@H]1CSSC[C@H](NC(=O)[C@@H](N)CCCNC(=N)N)C(=O)N[C@@H](CC(N)=O)C(=O)N[C@@H]([C@@H](C)O)C(=O)N[C@@H](C)C(=O)N[C@@H]([C@@H](C)O)C(=O)N1)[C@@H](C)O)C(=O)N[C@@H](CC(C)C)C(=O)N1CCC[C@H]1C(=O)N1CCC[C@H]1C(=O)N[C@H](C(=O)N[C@@H](CC(N)=O)C(=O)N[C@H](C(=O)NCC(=O)N[C@@H](CO)C(=O)N[C@@H](CC(N)=O)C(=O)N[C@H](C(=O)N1C[C@H](O)C[C@H]1C(N)=O)[C@@H](C)O)C(C)C)[C@@H](C)O` [PD116] (H-RCNTATCATQRLADFLRHSK([AEEA-γGlu-C20 diacid])NNLGPILPPTNVGSNT[Hyp]-NH2; disulfide 2-7) was tested. Which EC50 did it give?
Answer: 0.033 nM

Question: `CC[C@H](C)[C@H](NC(=O)[C@@H]1CCCN1C(=O)CNC(=O)[C@H](CC(C)C)NC(=O)[C@H](CC(N)=O)NC(=O)[C@H](CC(N)=O)NC(=O)[C@H](CO)NC(=O)[C@H](CCCCNC(=O)COCCOCCNC(=O)CC[C@H](NC(=O)CCCCCCCCCCCCCCCCCCC(=O)O)C(=O)O)NC(=O)[C@H](Cc1c[nH]cn1)NC(=O)[C@H](CCCNC(=N)N)NC(=O)[C@H](CC(C)C)NC(=O)[C@H](Cc1ccccc1)NC(=O)[C@H](CC(=O)O)NC(=O)[C@H](C)NC(=O)[C@H](CC(C)C)NC(=O)[C@H](CCCNC(=N)N)NC(=O)[C@H](CCC(N)=O)NC(=O)[C@@H](NC(=O)[C@H](C)NC(=O)[C@@H]1CSSC[C@H](NC(=O)[C@@H](N)CCCNC(=N)N)C(=O)N[C@@H](CC(N)=O)C(=O)N[C@@H]([C@@H](C)O)C(=O)N[C@@H](C)C(=O)N[C@@H]([C@@H](C)O)C(=O)N1)[C@@H](C)O)C(=O)N[C@@H](CC(C)C)C(=O)N1CCC[C@H]1C(=O)N1CCC[C@H]1C(=O)N[C@H](C(=O)N[C@@H](CC(N)=O)C(=O)N[C@H](C(=O)NCC(=O)N[C@@H](CO)C(=O)N[C@@H](CC(N)=O)C(=O)N[C@H](C(=O)N1C[C@H](O)C[C@H]1C(N)=O)[C@@H](C)O)C(C)C)[C@@H](C)O` [PD118] (H-RCNTATCATQRLADFLRHK([AEEA-γGlu-C20 diacid])SNNLGPILPPTNVGSNT[Hyp]-NH2; disulfide 2-7) was tested. Which EC50 did it give?
Answer: 0.032 nM

Question: With `CC[C@H](C)[C@H](NC(=O)[C@H](CCCCNC(=O)COCCOCCNC(=O)CC[C@H](NC(=O)CCCCCCCCCCCCCCCCC(=O)O)C(=O)O)NC(=O)CNC(=O)[C@H](CC(C)C)NC(=O)[C@H](CC(N)=O)NC(=O)[C@H](CC(N)=O)NC(=O)[C@H](CO)NC(=O)[C@H](CO)NC(=O)[C@H](Cc1c[nH]cn1)NC(=O)[C@H](CCCNC(=N)N)NC(=O)[C@H](CC(C)C)NC(=O)[C@H](Cc1ccccc1)NC(=O)[C@H](CC(=O)O)NC(=O)[C@H](C)NC(=O)[C@H](CC(C)C)NC(=O)[C@H](CCCNC(=N)N)NC(=O)[C@H](CCC(N)=O)NC(=O)[C@@H](NC(=O)[C@H](C)NC(=O)[C@@H]1CSSC[C@H](NC(=O)[C@@H](N)CCCNC(=N)N)C(=O)N[C@@H](CC(N)=O)C(=O)N[C@@H]([C@@H](C)O)C(=O)N[C@@H](C)C(=O)N[C@@H]([C@@H](C)O)C(=O)N1)[C@@H](C)O)C(=O)N[C@@H](CC(C)C)C(=O)N1CCC[C@H]1C(=O)N1CCC[C@H]1C(=O)N[C@H](C(=O)N[C@@H](CC(N)=O)C(=O)N[C@H](C(=O)NCC(=O)N[C@@H](CO)C(=O)N[C@@H](CC(N)=O)C(=O)N[C@H](C(=O)N1C[C@H](O)C[C@H]1C(N)=O)[C@@H](C)O)C(C)C)[C@@H](C)O` [PD121] (H-RCNTATCATQRLADFLRHSSNNLGK([AEEA-γGlu-C18 diacid])ILPPTNVGSNT[Hyp]-NH2; disulfide 2-7) as the compound, how does the EC50 read?
Answer: 0.018 nM

Question: With `CC[C@H](C)[C@H](NC(=O)[C@@H]1CCCN1C(=O)CNC(=O)[C@H](CC(C)C)NC(=O)[C@H](CC(N)=O)NC(=O)[C@H](CC(N)=O)NC(=O)[C@H](CO)NC(=O)[C@H](CO)NC(=O)[C@H](Cc1c[nH]cn1)NC(=O)[C@H](CCCNC(=N)N)NC(=O)[C@H](CC(C)C)NC(=O)[C@H](Cc1ccccc1)NC(=O)[C@H](CC(=O)O)NC(=O)[C@H](C)NC(=O)[C@H](CC(C)C)NC(=O)[C@H](CCCNC(=N)N)NC(=O)[C@H](CCC(N)=O)NC(=O)[C@@H](NC(=O)[C@H](C)NC(=O)[C@@H]1CSSC[C@H](NC(=O)[C@H](CCCCN)NC(=O)COCCOCCNC(=O)CC[C@H](NC(=O)CCCCCCCCCCCCCCCCCCC(=O)O)C(=O)O)C(=O)N[C@@H](CC(N)=O)C(=O)N[C@@H]([C@@H](C)O)C(=O)N[C@@H](C)C(=O)N[C@@H]([C@@H](C)O)C(=O)N1)[C@@H](C)O)C(=O)N[C@@H](CC(C)C)C(=O)N1CCC[C@H]1C(=O)N1CCC[C@H]1C(=O)N[C@H](C(=O)N[C@@H](CC(N)=O)C(=O)N[C@H](C(=O)NCC(=O)N[C@@H](CO)C(=O)N[C@@H](CC(N)=O)C(=O)N[C@H](C(=O)N1C[C@H](O)C[C@H]1C(N)=O)[C@@H](C)O)C(C)C)[C@@H](C)O` [PD122] ({C20 diacid-γGlu-AEEA}-KCNTATCATQRLADFLRHSSNNLGPILPPTNVGSNT[Hyp]-NH2; disulfide 2-7) as the compound, how does the EC50 read?
Answer: 0.048 nM
